Values after ≈ are worked out from the molar mass of the structure shown. Where a name gives a salt, the structure may show the parent alone.
Tests used:
[1] = system: Staphylococcus epidermidis; test: In vitro broth dilution minimal inhibitory concentration (standard microdilution method); format: cell-based; conditions: Mueller-Hinton broth, 24-hour; for MIC: 24 h, read-out: Microdilution Broth MIC
Escherichia coli = test: as above; format: cell-based; conditions: Escherichia coli, Mueller-Hinton broth, 24-hour; for MIC: read-out: Microdilution Broth MIC
Staphylococcus aureus [2] = test: In vivo efficacy of orally administered compounds in mouse intraperitoneal infections; conditions: mouse i.p. Staphylococcus aureus infection, oral, dosed at infection and 4 h post-infection, 7 days; for ED50: Staphylococcus aureus, po, 168 h, read-out: ED50 (50 percent effective dose); for ED50 (50 percent effective dose): 10080 min
Method: (§1) Determinations of in vivo efficacy are performed by inoculating mice intraperitoneally with cultures of the infecting organism diluted to produce 90-100% mortality in control animals within twenty-four hours. The diluents used were trypticase soy broth for E. coli and 5% aqueous hog gastric mucin for Staphylococcus aureus infections. The compounds are dissolved or suspended in 0.25% aqueous Methocel® (Methocel®: Hydroxypropyl Methylcellulose E15 Premium, Dow Chemical Company) for oral administration or sterile distilled water containing 5% dimethylsulfoxide (Fisher Scientific Company, Fairlawn, N.J.) for subcutaneous administration. The mice are dosed at the time of infection and again at four hours post-infection. Mortality is recorded daily until test termination seven days post infection and the 50 percent effective dose, ED50, is calculated by the Reed-Muench method (Reed, L. G. and Muench, H., "A simple method of estimating fifty percent end points," American Journal of Hygiene, 27, 493-497 (1938).

Staphylococcus aureus [3] = test: In vivo efficacy of compounds administered subcutaneously in mouse intraperitoneal infections; conditions: mouse i.p. Staphylococcus aureus infection, subcutaneous, dosed at infection and 4 h post-infection, 7 days; for ED50: sc, 168 h, read-out: ED50 (50 percent effective dose); for ED50 (50 percent effective dose): 10080 min
Method: as §1

| MIC [1] [µg/mL] | MIC (Escherichia coli) [µg/mL] | Microdilution Broth MIC [1] [µg/mL] | Microdilution Broth MIC (Escherichia coli) [µg/mL] | Structure (SMILES) | ED50 (Staphylococcus aureus [2]) [mg/kg] | ED50 (Staphylococcus aureus [3]) [mg/kg] | ED50 (50 percent effective dose) (Staphylococcus aureus [2]) [mg/kg] | ED50 (50 percent effective dose) (Staphylococcus aureus [3]) [mg/kg] |
| --- | --- | --- | --- | --- | --- | --- | --- | --- |
| 4 (≈ 13.5 µM) | 128 (≈ 432 µM) | – | – | CC(=O)NC[C@H]1CN(c2ccc([S@@+](C)[O-])cc2)C(=O)O1 [Example 180] | 2.5 | 0.8 | – | – |
| 2 (≈ 6.84 µM) | > 128 | – | – | CC(=O)NCC1CN(c2ccc(CCCO)cc2)C(=O)O1 (stereo not drawn) [Example 107] | > 60 | 18.6 | – | – |
| – | – | 25.0 | > 200.0 | CC(=O)NCC1CN(c2ccc([S+]([O-])CCO)cc2)C(=O)O1 (stereo not drawn) [Example 168, (l)-N-[3-[4-(2-Hydroxyethylsulfinyl)phenyl]-2-oxo-oxazolidin-5-ylmethyl]acetamide] | – | – | 49.8 | 24.3 |
| 8 (≈ 23.2 µM) | > 128 | – | – | CC(=O)NCC1CN(c2ccc(C(=O)C3CCCCC3)cc2)C(=O)O1 (stereo not drawn) [Example 141] | 40.2 | 20.8 | – | – |
| 12.5 (≈ 40.9 µM) | > 200 | – | – | CON=C(C)c1ccc(N2CC(CNC(C)=O)OC2=O)cc1 (single isomer, unassigned) [Example 160, (l)-N-[3-(4-Acetylphenyl)-2-oxooxazolidin-5-ylmethyl]acetamide Oxime, methyl ether] | < 4.4 | < 4.4 | – | – |
| 16 (≈ 48.4 µM) | > 128 | – | – | CC(=O)c1ccc(N2CC(CNC(=O)C(F)(F)F)OC2=O)cc1 (stereo not drawn) [Example 178] | 31.6 | 31.6 | – | – |
| 37.5 (≈ 114 µM) | > 200 | – | – | COC(=O)NCC1CN(c2ccc(S(N)(=O)=O)cc2)C(=O)O1 (stereo not drawn) [Example 45] | > 120 | 9.6 | – | – |
| 200 (≈ 638 µM) | > 200 | – | – | CS(=O)(=O)c1ccc(N2CC(CNC(N)=O)OC2=O)cc1 (stereo not drawn) [Example 77] | – | 70.9 | – | – |
| 16 (≈ 51.9 µM) | > 128 | – | – | CC(=O)NCC1CN(c2ccc(C(C)(O)CO)cc2)C(=O)O1 (stereo not drawn) [Example 102] | 24 | 9 | – | – |
| > 128 | > 128 | – | – | CC(=O)c1ccc(N2CC(CN)OC2=O)cc1 (single isomer, unassigned) [Example 170, (l)-3-(4-Acetylphenyl)-5-(aminomethyl)-2-oxazolidinone hydrochloride] | 32.3 | 25.3 | – | – |
| 4 (≈ 13.7 µM) | > 128 | – | – | COC(=O)c1ccc(N2CC(CNC(C)=O)OC2=O)cc1 (single isomer, unassigned) [Example 184, (l)-4-[(5-Acetylaminomethyl)-2-oxo-3-oxazolidinyl]benzoic acid methyl ester] | > 60 | 37.5 | – | – |
| 50 (≈ 163 µM) | > 200 | – | – | CSc1ccc(N2CC(CNC(=O)C3CC3)OC2=O)cc1 (stereo not drawn) [Example 71] | > 120 | 69.3 | – | – |
| 32 (≈ 96.6 µM) | > 128 | – | – | CC(=O)NCC1CN(c2ccc(C(=O)C=CN(C)C)cc2)C(=O)O1 (single isomer, unassigned) [Example 162] | 11.3 | 20.9 | – | – |
| 200 (≈ 806 µM) | > 200 | – | – | CC(=O)NCC1CN(c2ccc(C)cc2)C(=O)O1 (stereo not drawn) [Example 79] | 99.8 | 85.1 | – | – |
| > 128 | > 128 | – | – | CC(=O)NCC1CN(c2ccc(C=O)cc2)C(=O)O1 (single isomer, unassigned) [Example 185, (l)-N-[3-(4-Formylphenyl)-2-oxo-5-oxazolidinylmethyl]acetamide] | – | 35.9 | – | – |
| 25 (≈ 86.1 µM) | > 200 | – | – | CC(=O)Cc1ccc(N2CC(CNC(C)=O)OC2=O)cc1 (stereo not drawn) [Example 99] | 77.4 | 20.1 | – | – |
| 50 (≈ 172 µM) | > 200 | – | – | CC(C)c1ccc(N2CC(CNC(=O)CN)OC2=O)cc1 (racemic) [Example 157, (dl)-2-Amino-N-[3-[4-(1-methylethyl)phenyl]-2-oxooxazolidin-5-ylmethyl]acetamide] | 58.9 | 19.6 | – | – |
| 200 (≈ 687 µM) | > 200 | – | – | CC(=O)NCC1CN(c2ccc(NC(C)=O)cc2)C(=O)O1 (single isomer, unassigned) [Example 150, (l)-N-[3-[4-(Acetylamino)phenyl]-2-oxooxazolidin-5-ylmethyl]acetamide] | 56.9 | 12.5 | – | – |
| 3.1 (≈ 9.99 µM) | > 200 | – | – | CC(=O)NCC1CN(c2ccc(SCCO)cc2)C(=O)O1 (single isomer, unassigned) [Example 167, (l)-N-[3-[4-(2-Hydroxyethylthio)phenyl]-2-oxooxazolidin-5-ylmethyl]acetamide] | 68.2 | 10.8 | – | – |
| 200 (≈ 768 µM) | > 200 | – | – | CC(=O)c1ccc(N2CC(CN=[N+]=[N-])OC2=O)cc1 (stereo not drawn) [Example 5] | 172 | 41.2 | – | – |

| MIC [1] [µg/mL] | MIC (Escherichia coli) [µg/mL] | Microdilution Broth MIC [1] [µg/mL] | Microdilution Broth MIC (Escherichia coli) [µg/mL] | Structure (SMILES) | ED50 (Staphylococcus aureus [2]) [mg/kg] | ED50 (Staphylococcus aureus [3]) [mg/kg] | ED50 (50 percent effective dose) (Staphylococcus aureus [2]) [mg/kg] | ED50 (50 percent effective dose) (Staphylococcus aureus [3]) [mg/kg] |
| --- | --- | --- | --- | --- | --- | --- | --- | --- |
| 16 (≈ 52.6 µM) | > 128 | – | – | CCc1cc(N2CC(CNC(C)=O)OC2=O)ccc1C(C)=O (stereo not drawn) [Example 143] | 20.8 | 11.9 | – | – |
| > 200 | > 200 | – | – | CC(C)c1ccc(N2CC(CN)OC2=O)cc1 (stereo not drawn) [Example 17] | > 120 | 24.9 | – | – |
| 4 (≈ 7.8 µM) | 128 (≈ 250 µM) | – | – | CC(=O)NCC1CN(c2ccc(C(=O)C(Br)(Br)Br)cc2)C(=O)O1 (stereo not drawn) [Example 140] | 6.6 | 13.2 | – | – |
| 100 (≈ 384 µM) | > 200 | – | – | CC(C)c1ccc(N2CC(CN=[N+]=[N-])OC2=O)cc1 (stereo not drawn) [Example 7] | 24.2 | 33.7 | – | – |
| > 200 | > 200 | – | – | CC(=O)c1ccc(N2CC(CN)OC2=O)cc1 (stereo not drawn) [Example 15] | 40 | 24.9 | – | – |
| > 100 | > 100 | – | – | NCC1CN(c2ccc(S(N)(=O)=O)cc2)C(=O)O1 (single isomer, unassigned) [Example 12, (l)-4-[5-(Aminomethyl)-2-oxooxazolidin-3-yl]benzenesulfonamide] | 179 | 89.8 | – | – |
| 100 (≈ 314 µM) | > 200 | – | – | COC(=O)NCC1CN(c2ccc(C(F)(F)F)cc2)C(=O)O1 (stereo not drawn) [Example 42] | 45.5 | 20.9 | – | – |
| 0.5 (≈ 1.5 µM) | 64 (≈ 191 µM) | – | – | CC(=O)NCC1CN(c2ccc(C(=O)COC(C)=O)cc2)C(=O)O1 (single isomer, unassigned) [Example 183, (l)-N-[3-[4-(Acetyloxyacetyl)phenyl]-2-oxo-5-oxazolidinylmethyl]acetamide] | 9.1 | 3.4 | – | – |
| – | – | 50.0 | 200.0 | CC(=O)NCC1CN(c2ccc([S+]([O-])CCO)cc2)C(=O)O1 (stereo not drawn) [Example 169, (l)-N-[3-[4-(2-Hydroxyethylsulfinyl)phenyl]-2-oxo-oxazolidin-5-ylmethyl]acetamide] | – | – | 99.1 | 12.1 |
| 32 (≈ 110 µM) | > 128 | – | – | CC(=O)c1ccc(N2CC(CNC(=O)CN)OC2=O)cc1 (stereo not drawn) [Example 176] | 30.9 | 11.2 | – | – |
| 1 (≈ 3.44 µM) | > 128 | – | – | CC(=O)NCC1CN(c2ccc(C(C)(C)C)cc2)C(=O)O1 (stereo not drawn) [Example 105] | 10.8 | 13.8 | – | – |
| 4 (≈ 15.4 µM) | 128 (≈ 492 µM) | – | – | C=Cc1ccc(N2CC(CNC(C)=O)OC2=O)cc1 (stereo not drawn) [Example 101] | 10.6 | 4.8 | – | – |
| 25 (≈ 66.8 µM) | > 200 | – | – | CS(=O)(=O)c1ccc(N2CC(CNC(=O)c3ccccc3)OC2=O)cc1 (stereo not drawn) [Example 34] | > 120 | 49.6 | – | – |
| 25 (≈ 73.9 µM) | 200 (≈ 591 µM) | – | – | CS(=O)(=O)c1ccc(N2CC(CNC(=O)C3CC3)OC2=O)cc1 (stereo not drawn) [Example 72] | > 120 | 15.2 | – | – |
| 12.5 (≈ 33.5 µM) | > 200 | – | – | COC(=O)NCC1CN(c2ccc(S(=O)(=O)N(C)OC)cc2)C(=O)O1 (stereo not drawn) [Example 116] | 25.9 | 14.9 | – | – |
| 25 (≈ 81.6 µM) | > 200 | – | – | CCCCc1ccc(N2CC(CNC(=O)OC)OC2=O)cc1 (stereo not drawn) [Example 80] | 64 | 42.3 | – | – |
| 16 (≈ 54 µM) | > 128 | – | – | CC(=O)NC[C@H]1CN(c2ccc([S@+](C)[O-])cc2)C(=O)O1 [Example 181, (S,S)-N-[3-[4-(Methylsulfinyl)phenyl]-2-oxo-5-oxazolidinylmethyl]acetamide] | 2.8 | 1 | – | – |
| 3.1 (≈ 10.7 µM) | 100 (≈ 344 µM) | – | – | CC(=O)NCC1CN(c2ccc(C(C)=NN)cc2)C(=O)O1 (single isomer, unassigned) [Example 131, (l)-N-[3-[4-(1-Hydrazonoethyl)phenyl]-2-oxo-5-oxazolidinylmethyl]acetamide] | < 4.4 | < 4.4 | – | – |
| > 200 | > 200 | – | – | CS(=O)(=O)c1ccc(N2CC(CNC(=O)C(N)c3ccccc3)OC2=O)cc1 (stereo not drawn) [Example 78] | – | 67.1 | – | – |

— patent US4705799A, “Aminomethyl oxooxazolidinyl benzenes useful as antibacterial agents” (E. I. Du Pont de Nemours and Company, priority 1985, dated 1987)
